Test results published in the CheMixHub viscosity set.
“And” between values parts separate entries of the source, which are not always exact repeats. Identical values can stand only once.

Experiment: xn = mol fraction of the nth substance listed

CC(O)CN(C)C (stereo not drawn) + O
viscosity [mPa·s], 101 kPa
Conditions	293.15 K	303.15 K	308.15 K	313.15 K	318.15 K	323.15 K
x1 = 0.05	–	2.279	1.935	1.656	1.441	1.264
x1 = 0.0997	–	4.278	3.466	2.852	2.393	2.027
x1 = 0.1	7.22	4.74	–	–	–	2.15
x1 = 0.1507	–	5.905	4.691	3.78	3.11	2.592
x1 = 0.2001	9.89	6.37	–	4.08	–	2.82
x1 = 0.2021	–	6.775	5.334	4.263	3.485	2.881
x1 = 0.2501	–	–	5.478	4.372	3.562	2.935
x1 = 0.3003	9.87	6.34	–	4.01	–	2.8
x1 = 0.3013	–	6.703	5.288	4.227	3.449	2.847
x1 = 0.3507	–	6.218	4.934	–	3.249	2.692
x1 = 0.3998	8.61	5.52	–	3.49	–	2.47
x1 = 0.4013	–	5.613	4.485	3.628	2.989	–
x1 = 0.4578	–	4.875	3.936	3.213	2.674	–
x1 = 0.4999	6.61	4.37	–	2.8	–	2.01
x1 = 0.5049	–	4.294	3.499	2.882	2.426	–
x1 = 0.6	4.76	3.18	–	2.17	–	1.62
x1 = 0.6009	–	3.285	2.747	2.294	1.955	–
x1 = 0.7002	3.38	2.31	–	1.69	–	1.32
x1 = 0.7054	–	2.482	2.111	1.807	1.57	–
x1 = 0.7955	–	1.957	1.697	1.479	1.305	–
x1 = 0.8	2.47	1.83	–	1.4	–	1.11
x1 = 0.8905	–	1.561	1.375	1.218	1.092	–
x1 = 0.9001	1.94	1.5	–	1.17	–	0.95
x1 = 0.9564	–	1.347	1.201	1.077	0.973	–

CC(=O)N(C)C + O
Conditions	viscosity
298.15 K, 101 kPa, x1 = 0.0203	1.214 mPa·s
298.15 K, 101 kPa, x1 = 0.025	1.265 mPa·s
298.15 K, 101 kPa, x1 = 0.0502	1.653 mPa·s
298.15 K, 101 kPa, x1 = 0.065	1.871 mPa·s
298.15 K, 101 kPa, x1 = 0.0703	1.982 mPa·s
298.15 K, 101 kPa, x1 = 0.1	2.467 mPa·s
298.15 K, 101 kPa, x1 = 0.1011	2.413 mPa·s
298.15 K, 101 kPa, x1 = 0.12	2.754 mPa·s
298.15 K, 101 kPa, x1 = 0.1203	2.797 mPa·s
298.15 K, 101 kPa, x1 = 0.1495	3.161 mPa·s
298.15 K, 101 kPa, x1 = 0.1497	3.223 mPa·s
298.15 K, 101 kPa, x1 = 0.1698	3.471 mPa·s
298.15 K, 101 kPa, x1 = 0.2003	3.774 mPa·s
298.15 K, 101 kPa, x1 = 0.2004	3.728 mPa·s
298.15 K, 101 kPa, x1 = 0.22	3.908 mPa·s
298.15 K, 101 kPa, x1 = 0.2497	4.023 mPa·s
298.15 K, 101 kPa, x1 = 0.2512	3.94 mPa·s
298.15 K, 101 kPa, x1 = 0.2701	4.04 mPa·s
298.15 K, 101 kPa, x1 = 0.3	3.99 mPa·s
298.15 K, 101 kPa, x1 = 0.3002	3.941 mPa·s
298.15 K, 101 kPa, x1 = 0.32	3.917 mPa·s
298.15 K, 101 kPa, x1 = 0.3501	3.692 mPa·s and 3.761 mPa·s
298.15 K, 101 kPa, x1 = 0.4002	3.426 mPa·s
298.15 K, 101 kPa, x1 = 0.4009	3.341 mPa·s
298.15 K, 101 kPa, x1 = 0.4503	3.059 mPa·s
298.15 K, 101 kPa, x1 = 0.5003	2.69 mPa·s
298.15 K, 101 kPa, x1 = 0.5018	2.606 mPa·s
298.15 K, 101 kPa, x1 = 0.5999	2.09 mPa·s
298.15 K, 101 kPa, x1 = 0.6031	1.995 mPa·s
298.15 K, 101 kPa, x1 = 0.6505	1.777 mPa·s
298.15 K, 101 kPa, x1 = 0.7	1.646 mPa·s
298.15 K, 101 kPa, x1 = 0.7005	1.592 mPa·s
298.15 K, 101 kPa, x1 = 0.755	1.419 mPa·s
298.15 K, 101 kPa, x1 = 0.8002	1.329 mPa·s
298.15 K, 101 kPa, x1 = 0.8048	1.284 mPa·s
298.15 K, 101 kPa, x1 = 0.8499	1.212 mPa·s
298.15 K, 101 kPa, x1 = 0.8501	1.185 mPa·s
298.15 K, 101 kPa, x1 = 0.8999	1.113 mPa·s
298.15 K, 101 kPa, x1 = 0.9049	1.083 mPa·s
298.15 K, 101.33 kPa, x2 = 0.1008	1.071 mPa·s
298.15 K, 101.33 kPa, x2 = 0.2042	1.286 mPa·s
298.15 K, 101.33 kPa, x2 = 0.3008	1.582 mPa·s
298.15 K, 101.33 kPa, x2 = 0.4068	2.047 mPa·s
298.15 K, 101.33 kPa, x2 = 0.5052	2.607 mPa·s
298.15 K, 101.33 kPa, x2 = 0.6026	3.31 mPa·s
298.15 K, 101.33 kPa, x2 = 0.7051	3.873 mPa·s
298.15 K, 101.33 kPa, x2 = 0.8054	3.612 mPa·s
298.15 K, 101.33 kPa, x2 = 0.9239	2.342 mPa·s
298.16 K, 101 kPa, x2 = 0.09	1.07 mPa·s
298.16 K, 101 kPa, x2 = 0.155	1.2 mPa·s
298.16 K, 101 kPa, x2 = 0.235	1.4 mPa·s
298.16 K, 101 kPa, x2 = 0.314	1.67 mPa·s
298.16 K, 101 kPa, x2 = 0.459	2.37 mPa·s
298.16 K, 101 kPa, x2 = 0.604	3.4 mPa·s
298.16 K, 101 kPa, x2 = 0.6607	3.75 mPa·s
298.16 K, 101 kPa, x2 = 0.741	3.97 mPa·s
298.16 K, 101 kPa, x2 = 0.7645	3.94 mPa·s
298.16 K, 101 kPa, x2 = 0.8044	3.65 mPa·s
298.16 K, 101 kPa, x2 = 0.8517	3.16 mPa·s
300.2 K, 101 kPa, x2 = 0.0298	1.005 mPa·s
300.2 K, 101 kPa, x2 = 0.0519	1.037 mPa·s
300.2 K, 101 kPa, x2 = 0.0694	1.062 mPa·s
300.2 K, 101 kPa, x2 = 0.0926	1.105 mPa·s
300.2 K, 101 kPa, x2 = 0.2763	1.564 mPa·s
300.2 K, 101 kPa, x2 = 0.436	2.3 mPa·s
300.2 K, 101 kPa, x2 = 0.555	3.112 mPa·s
300.2 K, 101 kPa, x2 = 0.6259	3.615 mPa·s
300.2 K, 101 kPa, x2 = 0.6897	3.957 mPa·s
300.2 K, 101 kPa, x2 = 0.7347	4.029 mPa·s
300.2 K, 101 kPa, x2 = 0.7737	3.926 mPa·s
300.2 K, 101 kPa, x2 = 0.8015	3.741 mPa·s
300.2 K, 101 kPa, x2 = 0.8783	2.782 mPa·s
300.2 K, 101 kPa, x2 = 0.9515	1.599 mPa·s
303.15 K, 101 kPa, x1 = 0.0203	1.076 mPa·s
303.15 K, 101 kPa, x1 = 0.0502	1.443 mPa·s
303.15 K, 101 kPa, x1 = 0.0703	1.716 mPa·s
303.15 K, 101 kPa, x1 = 0.1	2.112 mPa·s
303.15 K, 101 kPa, x1 = 0.1203	2.379 mPa·s
303.15 K, 101 kPa, x1 = 0.1497	2.719 mPa·s
303.15 K, 101 kPa, x1 = 0.1698	2.915 mPa·s
303.15 K, 101 kPa, x1 = 0.2003	3.156 mPa·s
303.15 K, 101 kPa, x1 = 0.22	3.263 mPa·s
303.15 K, 101 kPa, x1 = 0.2497	3.357 mPa·s
303.15 K, 101 kPa, x1 = 0.2701	3.373 mPa·s
303.15 K, 101 kPa, x1 = 0.3	3.339 mPa·s
303.15 K, 101 kPa, x1 = 0.32	3.286 mPa·s
303.15 K, 101 kPa, x1 = 0.3501	3.169 mPa·s
303.15 K, 101 kPa, x1 = 0.4002	2.914 mPa·s
303.15 K, 101 kPa, x1 = 0.4503	2.628 mPa·s
303.15 K, 101 kPa, x1 = 0.5003	2.336 mPa·s
303.15 K, 101 kPa, x1 = 0.5999	1.852 mPa·s
303.15 K, 101 kPa, x1 = 0.7	1.484 mPa·s
303.15 K, 101 kPa, x1 = 0.8002	1.216 mPa·s
303.15 K, 101 kPa, x1 = 0.8499	1.114 mPa·s
308.15 K, 101 kPa, x1 = 0.065	1.428 mPa·s
308.15 K, 101 kPa, x1 = 0.1	1.767 mPa·s
308.15 K, 101 kPa, x1 = 0.1011	1.81 mPa·s
308.15 K, 101 kPa, x1 = 0.1495	2.307 mPa·s
308.15 K, 101 kPa, x1 = 0.2	2.629 mPa·s
308.15 K, 101 kPa, x1 = 0.2004	2.661 mPa·s
308.15 K, 101 kPa, x1 = 0.2512	2.79 mPa·s
308.15 K, 101 kPa, x1 = 0.3	2.763 mPa·s
308.15 K, 101 kPa, x1 = 0.3002	2.784 mPa·s
308.15 K, 101 kPa, x1 = 0.3501	2.667 mPa·s
308.15 K, 101 kPa, x1 = 0.4	2.479 mPa·s
308.15 K, 101 kPa, x1 = 0.4009	2.474 mPa·s
308.15 K, 101 kPa, x1 = 0.5018	1.929 mPa·s
308.15 K, 101 kPa, x1 = 0.6	1.694 mPa·s
308.15 K, 101 kPa, x1 = 0.6031	1.568 mPa·s
308.15 K, 101 kPa, x1 = 0.6505	1.424 mPa·s
308.15 K, 101 kPa, x1 = 0.7005	1.305 mPa·s
308.15 K, 101 kPa, x1 = 0.755	1.183 mPa·s
308.15 K, 101 kPa, x1 = 0.8048	1.085 mPa·s
308.15 K, 101 kPa, x1 = 0.8501	1.003 mPa·s
308.15 K, 101 kPa, x1 = 0.9049	0.922 mPa·s
318.15 K, 101 kPa, x1 = 0.025	0.784 mPa·s
318.15 K, 101 kPa, x1 = 0.065	1.106 mPa·s
318.15 K, 101 kPa, x1 = 0.1011	1.387 mPa·s
318.15 K, 101 kPa, x1 = 0.12	1.533 mPa·s
318.15 K, 101 kPa, x1 = 0.1495	1.718 mPa·s
318.15 K, 101 kPa, x1 = 0.2004	1.944 mPa·s
318.15 K, 101 kPa, x1 = 0.2512	2.05 mPa·s
318.15 K, 101 kPa, x1 = 0.3002	2.056 mPa·s
318.15 K, 101 kPa, x1 = 0.3501	1.986 mPa·s
318.15 K, 101 kPa, x1 = 0.4009	1.853 mPa·s
318.15 K, 101 kPa, x1 = 0.5018	1.553 mPa·s
318.15 K, 101 kPa, x1 = 0.6031	1.274 mPa·s
318.15 K, 101 kPa, x1 = 0.6505	1.178 mPa·s
318.15 K, 101 kPa, x1 = 0.7005	1.085 mPa·s
318.15 K, 101 kPa, x1 = 0.755	0.999 mPa·s
318.15 K, 101 kPa, x1 = 0.8048	0.932 mPa·s
318.15 K, 101 kPa, x1 = 0.8501	0.868 mPa·s
318.15 K, 101 kPa, x1 = 0.9049	0.803 mPa·s
